Laboratory results taken from patent publication US4082849A, “Halogenated N-(3,5-dihalophenyl)cyclopropanedicarboximides” (priority 1975, dated 1978).
Where two headings read alike, the source gives them in different places.

Experiments:
Sclerotinia sclerotiorum [1] = experiment: Anti-fungal spectrum, agar dilution method; format: cell-based; conditions: PSA plate, 28° C, read-out: growth inhibiting effect
[2] = test system: Chaetomium globosum ATCC 6205; experiment: Anti-fungal spectrum, agar dilution method; format: cell-based; conditions: Chaetomium globosum ATCC 6205, 50 ppm, PSA plate, 28° C
Giberella fujikuroi = experiment: Anti-fungal spectrum, agar dilution method; format: cell-based; conditions: read-out: growth inhibiting effect
Rhizoctonia solani [3] = test system: Rhizoctonia solani
Protocol: Test for Rhizoctonia solani controlling effect on cucumber
Farm soil was charged into pots of 9 cm in diameter and a soil (10 ml) infected with Rhizoctonia solani was dispersed over the surface of said soil. Each of the test compounds in the form of emulsifiable concentrates was diluted with water to a given concentration, and the dilution was applied into each pot in a proportion of 20 ml per pot. After 2 hours, 10 seeds of cucumber were sowed therein. 5 Days thereafter, the infectious state of the grown seedlings was observed, and the percentage of stand was calculated according to the following equation: [formula]

Verticillium albo-atrum = experiment: Anti-fungal spectrum, agar dilution method; format: cell-based; conditions: PSA plate, 28° C, read-out: growth inhibiting effect
Glomerella cingulata [4] = test system: Glomerella cingulata
Protocol: Test for Glomerella Cingulata controlling effect on grape
An aqueous dilution of the test compound in the form of a wettable powder preparation was applied to berries of grape at a rate of 20 ml per branch. After one day, Glomerella cingulata was inoculated on the surface of the berries immediately after injuring the inoculation site. Three days after inoculation, disease assessment was made. Percentage of control was calculated from the diameter of diseased area according to the following equation: [formula]

Phytophthora infestans = experiment: microbe, parasite or virus in culture; format: cell-based; conditions: read-out: growth inhibiting effect
Pellicularia sasakii = experiment: Anti-fungal spectrum, agar dilution method; format: cell-based; conditions: read-out: growth inhibiting effect
Rhizopus nigricans = experiment: Anti-fungal spectrum, agar dilution method; format: cell-based; conditions: Rhizopus stolonifer, PSA plate, 28° C, read-out: growth inhibiting effect
[5] = test system: Colletotrichum lagenarium; experiment: Anti-fungal spectrum, agar dilution method; format: cell-based; conditions: Colletotrichum orbiculare, PSA plate, 28° C, read-out: growth inhibiting effect
[6] = test system: Fusarium oxysporum f. lycopersici; experiment: Anti-fungal spectrum, agar dilution method; format: cell-based; conditions: PSA plate, 28° C, read-out: growth inhibiting effect
Glomerella cingulata [7] = experiment: Anti-fungal spectrum, agar dilution method; format: cell-based; conditions: Colletotrichum gloeosporioides, PSA plate, 28° C, read-out: growth inhibiting effect
[8] = test system: Aspergillus niger ATCC 6275; experiment: Anti-fungal spectrum, agar dilution method; format: cell-based; conditions: Aspergillus niger ATCC 6275, 50 ppm, PSA plate, 28° C
Pyricularia oryzae = experiment: microbe, parasite or virus in culture; format: cell-based; conditions: read-out: growth inhibiting effect
Rhizoctonia solani [9] = experiment: Anti-fungal spectrum, agar dilution method; format: cell-based; conditions: PSA plate, 28° C, read-out: growth inhibiting effect
Corticium rolfsii = experiment: Anti-fungal spectrum, agar dilution method; format: cell-based; conditions: Agroathelia rolfsii, PSA plate, 28° C, read-out: growth inhibiting effect
Botrytis cinerea [10] = experiment: Anti-fungal spectrum, agar dilution method; format: cell-based; conditions: PSA plate, 28° C, read-out: growth inhibiting effect
Botrytis cinerea [11] = experiment: Test for Botrytis cinerea controlling effect on cucumbers; format: in vivo
Protocol: After one day, agar discs (diameter: 5 mm) with Botrytis cinerea were put on the leaves for inoculation. Three days after, the disease severity was observed, and the disease-controlling effect was estimated. Percentage of control was determined by the following procedure. The rate of diseased area on the tested leaf was measured and classified in one of the six infectious indexes (0, 1, 2, 3, 4, 5) according to the undermentioned criteria. The number of leaves corresponding to each infectious index ([NT]5) was determined, and percentage of control was calculated according to the undermentioned equation: […]

Sclerotinia sclerotiorum [12] = experiment: Test for Sclerotinia sclerotiorum controlling effect on cucumbers; format: in vivo; conditions: 100 ppm
Protocol: After one day, Sclerotinia sclerotiorum was inoculated on the surface of the leaf, and the disease severity was observed three days thereafter. The degree of the severity was determined in the following manner. The rate of diseased area on the leaf was measured and classified in one of the six infectious indexes (0, 1, 2, 3, 4, 5) according to the undermentioned criteria. The number of leaves corresponding to each infectious index ([NT]5) was determined, and degree of severity was calculated according to the undermentioned equation: […]

[13] = Giberella fujikuroi, 50 ppm, PSA plate, 28° C
[14] = Pellicularia sasakii, 50 ppm, PSA plate, 28° C

Q: For `CC12CC1(C)C(=O)N(c1cc(Cl)cc(Cl)c1)C2=O` (stereo not drawn) [reference compound], which inhibition at 50 ppm (Sclerotinia sclerotiorum [1]) is on record?
A: The inhibition at 50 ppm was 100%.

Q: And the growth inhibiting effect [2]?
A: The growth inhibiting effect was “E (5 % inhibition)”.

Q: What about the inhibition at 50 ppm (Giberella fujikuroi) of the same molecule?
A: Its inhibition at 50 ppm is 0%.

Q: What about the Percentage of stand (Rhizoctonia solani [3]; 250 ppm) of the same molecule?
A: The Percentage of stand was 0%.

Q: And the Percentage of stand (Rhizoctonia solani [3]; 500 ppm)?
A: The Percentage of stand was 21.3%.

Q: What about the inhibition at 50 ppm (Verticillium albo-atrum) of the same molecule?
A: The inhibition at 50 ppm was 5%.

Q: What about the Percentage of control (Glomerella cingulata [4]; 250 ppm of ingredient) of the same molecule?
A: Its Percentage of control is 6.5%.

Q: And the inhibition at 50 ppm (Phytophthora infestans)?
A: Its inhibition at 50 ppm is 0%.

Q: And the inhibition at 50 ppm (Pellicularia sasakii)?
A: The inhibition at 50 ppm was 100%.

Q: And the inhibition at 50 ppm (Rhizopus nigricans)?
A: Its inhibition at 50 ppm is 0%.

Q: What about the inhibition at 50 ppm [5] of the same molecule?
A: Its inhibition at 50 ppm is 0%.

Q: And the inhibition at 50 ppm [6]?
A: Its inhibition at 50 ppm is 70%.

Q: What about the inhibition at 50 ppm (Glomerella cingulata [7]) of the same molecule?
A: Its inhibition at 50 ppm is 30%.

Q: What about the growth inhibiting effect [8] of the same molecule?
A: The growth inhibiting effect was “E (5 % inhibition)”.

Q: What about the inhibition at 50 ppm (Pyricularia oryzae) of the same molecule?
A: The inhibition at 50 ppm was 0%.

Q: What about the inhibition at 50 ppm (Rhizoctonia solani [9]) of the same molecule?
A: Its inhibition at 50 ppm is 90%.

Q: And the inhibition at 50 ppm (Corticium rolfsii)?
A: The inhibition at 50 ppm was 0%.

Q: And the inhibition at 50 ppm (Botrytis cinerea [10])?
A: Its inhibition at 50 ppm is 100%.

Q: For `CC1C2C(=O)N(c3cc(Cl)cc(Cl)c3)C(=O)C12Cl` (stereo not drawn) [Compound 4], which Percentage of stand (Rhizoctonia solani [3]; 250 ppm) is on record?
A: Its Percentage of stand is 96.7%.

Q: What about the Percentage of stand (Rhizoctonia solani [3]; 500 ppm) of the same molecule?
A: Its Percentage of stand is 100%.

Q: And the Percentage of control (Botrytis cinerea [11]; 50 ppm)?
A: The Percentage of control was 100%.

Q: What about the Percentage of control (Botrytis cinerea [11]; 200 ppm) of the same molecule?
A: Its Percentage of control is 100%.

Q: And the Degree of severity (Sclerotinia sclerotiorum [12])?
A: Its Degree of severity is 100%.

Q: Which Percentage of stand (Rhizoctonia solani [3]; 250 ppm) does the source give for `O=[N+]([O-])c1c(Cl)c(Cl)c(Cl)c(Cl)c1Cl` [PCNB, reference compound] here?
A: The Percentage of stand was 93.4%.

Q: How did the Percentage of control (Botrytis cinerea [11]; 50 ppm) turn out when `CC12CC1(Br)C(=O)N(c1cc(Cl)cc(Cl)c1)C2=O` (stereo not drawn) [Compound 5] was run?
A: Its Percentage of control is 95%.

Q: What about the Percentage of control (Botrytis cinerea [11]; 200 ppm) of the same molecule?
A: The Percentage of control was 100%.

Q: What about the Degree of severity (Sclerotinia sclerotiorum [12]) of the same molecule?
A: The Degree of severity was 100%.

Q: Which results are given for `CC12CC1(Cl)C(=O)N(c1cc(Br)cc(Br)c1)C2=O` (stereo not drawn) [Compound 3, N-(3,5-dibromophenyl)-α-chloro-β-methylcyclopropanedicarboximide]?
A: inhibition at 50 ppm (Sclerotinia sclerotiorum [1]): 100%; growth inhibiting effect [2]: A (no growth); inhibition at 50 ppm (Giberella fujikuroi; [13]): 100%; Percentage of control (Botrytis cinerea [11]; 50 ppm): 92%; Percentage of control (Botrytis cinerea [11]; 200 ppm): 100%; inhibition at 50 ppm (Verticillium albo-atrum): 100%; Percentage of control (Glomerella cingulata [4]; 250 ppm of ingredient): 78.5%; Degree of severity (Sclerotinia sclerotiorum [12]): 94%; inhibition at 50 ppm (Phytophthora infestans): 100%; inhibition at 50 ppm (Pellicularia sasakii; [14]): 100%; inhibition at 50 ppm (Rhizopus nigricans): 90%; inhibition at 50 ppm [5]: 90%; inhibition at 50 ppm [6]: 100%; inhibition at 50 ppm (Glomerella cingulata [7]): 100%; growth inhibiting effect [8]: A (no growth); inhibition at 50 ppm (Pyricularia oryzae): 90%; inhibition at 50 ppm (Rhizoctonia solani [9]): 100%; inhibition at 50 ppm (Corticium rolfsii): 100%; inhibition at 50 ppm (Botrytis cinerea [10]): 100%

Q: `CCCCNC(=O)n1c(NC(=O)OC)nc2ccccc21` [Methyl-1-(butylcarbamoyl)-2-benzimidazole carbamate, reference compound] was tested. Which Percentage of control (Botrytis cinerea [11]; 50 ppm) did it give?
A: Its Percentage of control is 90%.

Q: And the Percentage of control (Botrytis cinerea [11]; 200 ppm)?
A: Its Percentage of control is 100%.

Q: And the Degree of severity (Sclerotinia sclerotiorum [12])?
A: Its Degree of severity is 35%.

Q: Which Percentage of stand (Rhizoctonia solani [3]; 250 ppm) does the source give for `O=C1C2CC2(Cl)C(=O)N1c1cc(Cl)cc(Cl)c1` (stereo not drawn) [Compound 2] here?
A: Its Percentage of stand is 100%.

Q: What about the Percentage of stand (Rhizoctonia solani [3]; 500 ppm) of the same molecule?
A: Its Percentage of stand is 100%.

Q: What about the Percentage of control (Botrytis cinerea [11]; 50 ppm) of the same molecule?
A: The Percentage of control was 100%.

Q: What about the Percentage of control (Botrytis cinerea [11]; 200 ppm) of the same molecule?
A: The Percentage of control was 100%.

Q: What about the Percentage of control (Glomerella cingulata [4]; 250 ppm of ingredient) of the same molecule?
A: The Percentage of control was 100%.

Q: What about the Degree of severity (Sclerotinia sclerotiorum [12]) of the same molecule?
A: The Degree of severity was 100%.

Q: What does the source list for `CC12CC1(Cl)C(=O)N(c1cc(Cl)cc(Cl)c1)C2=O` (stereo not drawn) [Compound 1, N-(3,5-dichlorophenyl)-α-chloro-β-methylcyclopropanedicarboximide]?
A: inhibition at 50 ppm (Sclerotinia sclerotiorum [1]): 100%; growth inhibiting effect [2]: A (no growth); inhibition at 50 ppm (Giberella fujikuroi; [13]): 100%; Percentage of stand (Rhizoctonia solani [3]; 250 ppm): 100%; Percentage of stand (Rhizoctonia solani [3]; 500 ppm): 100%; inhibition at 50 ppm (Verticillium albo-atrum): 100%; Percentage of control (Glomerella cingulata [4]; 250 ppm of ingredient): 100%; Degree of severity (Sclerotinia sclerotiorum [12]): 100%; inhibition at 50 ppm (Phytophthora infestans): 100%; inhibition at 50 ppm (Pellicularia sasakii; [14]): 100%; inhibition at 50 ppm (Rhizopus nigricans): 100%; inhibition at 50 ppm [5]: 100%; inhibition at 50 ppm [6]: 100%; inhibition at 50 ppm (Glomerella cingulata [7]): 100%; growth inhibiting effect [8]: A (no growth); inhibition at 50 ppm (Pyricularia oryzae): 90%; inhibition at 50 ppm (Rhizoctonia solani [9]): 100%; inhibition at 50 ppm (Corticium rolfsii): 100%; inhibition at 50 ppm (Botrytis cinerea [10]): 100%

Q: For Mancozeb [reference compound], which Percentage of control (Glomerella cingulata [4]; 140 ppm of ingredient) is on record?
A: Its Percentage of control is 65.0%.
